Laboratory results from PubChem BioAssay AID1963838 (Molecular Pharmacology Branch, DTP, NCI, 2024).

Test system: 855422-203-R-J1-PDC complex spheroid viability
Experiment: Anticancer human tumor 855422-203-R-J1-PDC patient-derived bladder carcinoma cell line growth inhibition [POLQ]
Settings: for IC50: curve of first compound; for viability, T/C: stronger effect = lower value
Method: Multicellular complex tumor spheroid response to Polymerase (POL) inhibitors (novobiocin, ART-558, RP6685) in combination with a variety of drugs and investigational agents in selected tumor cell lines
The POL inhibitors (novobiocin, ART-558, and RP6685) were evaluated both individually and in combination with standard of care and investigational anticancer small molecules within a complex spheroid model of solid tumors. . Complex spheroids include a stromal component modeled by human endothelial cells (HUVEC) and fibroblasts modeled by human mesenchymal stem cells (MSCs). The concentration ranges selected for each drug and investigational agent were based upon clinically achievable concentrations if the clinical Cmax of the agent was known.
Compounds. The drugs and investigational agents: novobiocin (NSC847541), ART-558 (NSC835418), RP-6685 (NSC848927), peposertib (NSC802822), ceralasertib (NSC780249), elimusertib (NSC800525), camonsertib (NSC841442), AZD-1390 (NSC803789), olaparib (NSC753686), talazoparib (NSC767125), rucaparib (NSC756644), sotorasib (NSC818433), MRTX-1133 (NSC836407), SN-38 (NSC673596), topotecan (NSC609699), epotoside (NSC141540), doxorubicin (NSC123127), gemcitabine (NSC613327), 5-fluorouracil (NSC19893), paclitaxel (NSC125973), vemurafenib (NSC761431), MSA-2 (NSC828583), SN-011 (NSC837082), adavosertib (NSC754352), prexasertib (NSC758257), carboplatin (NSC241240) and oxaliplatin (NSC266046), were obtained from the National Cancer Institute (NCI) Developmental Therapeutics Program Chemical Repository (21). The FDA-approved anticancer drug set is available from the Developmental Therapeutics Program at https://dtp.cancer.gov/organization/dscb/obtaining/. […] The stock solutions were prepared in dimethyl sulfoxide (DMSO, Sigma-Aldrich, St. Louis, MO, cat. D2650), except for the platinum compounds which were prepared in saline (Quality Biological, Gaithersburg, MD, cat. 114-055-101), at 800-fold the tested concentration and stored at -70 degrees C prior to their use. All drugs and investigational agents were tested over a range starting from a high concentration at or near the clinical Cmax and decreasing in half-log increments. If the clinical Cmax for an agent had not been determined, the highest concentration tested was 10 microM, except for SN-38, which was tested at a high concentration of 1 microM.
Cell Culture. All cells were maintained in an incubator at 37 degrees C and 5% CO2 with 95% humidity. The PDC lines were cultured according to standard operating procedures established by the NCI PDMR (https://pdmr.cancer.gov). Table 3 of the manuscript, lists the cell lines along with the number of the three cell types plated to form the mct-spheroids and media for tumor cell growth. After thawing, all PDC lines, except 997537-175-T-J1-PDC and 415267-285-R-J2-PDC, were cultured in Matrigel-coated flasks prepared with a working solution of 1X Ham's F-12 nutrient mix, without supplementation (Thermo Fisher Scientific, cat. 11765054), 100 U/mL penicillin-streptomycin (Thermo Fisher Scientific, cat. 15140122), and 2.5% Matrigel (Corning Inc., Corning, NY, cat. 354248) for the first three passages. The two PDC lines 997537-175-T-J1-PDC and 415267-285-R-J2-PDC were cultured on uncoated flasks. The 857933-349-R-J2-PDC line was cultured in 6C/Colon 1B media containing advanced DMEM/F-12 (Thermo Fisher Scientific, cat. 12634028), 10 mM HEPES (Thermo Fisher Scientific, cat. 15630080), 1X GlutaMAX supplement (Thermo Fisher Scientific, cat. 35050061), 0.1 mg/mL primocin (InvivoGen, San Diego, CA, cat. ant-pm-2), 10% defined fetal bovine serum, heat inactivated (HyClone Laboratories Inc., Logan, UT, cat. SH30070.03HI), 50% L-WRN conditioned media (ATCC, cat. CRL-3276), 1.25 mM N-Acetyl-L-cysteine (Sigma-Aldrich, cat. A9165), 10 mM nicotinamide (Sigma-Aldrich, cat. N0636), 1X B-27 supplement (Thermo Fisher Scientific, cat. 17504044), 1X N-2 supplement (Thermo Fisher Scientific, cat. […]

[1] = second compound 0.0316 µM, first compound 0.00316 µM
[2] = second compound 0.0316 µM, first compound 0.01 µM
[3] = second compound 0.0316 µM, first compound 0.0316 µM
[4] = second compound 0.0316 µM, first compound 0.1 µM
[5] = second compound 0.1 µM, first compound 0.00316 µM
[6] = second compound 0.1 µM, first compound 0.01 µM
[7] = second compound 0.1 µM, first compound 0.0316 µM
[8] = second compound 0.1 µM, first compound 0.1 µM
[9] = second compound 0.316 µM, first compound 0.00316 µM
[10] = second compound 0.316 µM, first compound 0.01 µM
[11] = second compound 0.316 µM, first compound 0.0316 µM
[12] = second compound 0.316 µM, first compound 0.1 µM
[13] = second compound 1 µM, first compound 0.00316 µM
[14] = second compound 1 µM, first compound 0.01 µM
[15] = second compound 1 µM, first compound 0.0316 µM
[16] = second compound 1 µM, first compound 0.1 µM
[17] = second compound 3.16 µM, first compound 0.00316 µM
[18] = second compound 3.16 µM, first compound 0.01 µM
[19] = second compound 3.16 µM, first compound 0.0316 µM
[20] = second compound 3.16 µM, first compound 0.1 µM
[21] = second compound 10 µM, first compound 0.00316 µM
[22] = second compound 10 µM, first compound 0.01 µM
[23] = second compound 10 µM, first compound 0.0316 µM
[24] = second compound 10 µM, first compound 0.1 µM
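Further: spheroids exposed to compounds for seven days before readout.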

CC[C@@]1(O)C(=O)OCc2c1cc1n(c2=O)Cc2cc3c(CN(C)C)c(O)ccc3nc2-1 + COC1C(OC(N)=O)C(O)C(Oc2ccc3c(O)c(NC(=O)c4ccc(O)c(CC=C(C)C)c4)c(=O)oc3c2C)OC1(C)C showed an IC50 (second compound 0.0316 µM) of 35.2 nM, an IC50 (second compound 0.1 µM) of 30.3 nM and an IC50 (second compound 0.316 µM) of 30.2 nM. It also gave an IC50 (second compound 1 µM) of 27.7 nM, an IC50 (second compound 3.16 µM) of 23.3 nM and an IC50 (second compound 10 µM) of 22.5 nM. For the same molecule, the viability, T/C (second compound 0.0316 µM, first compound 0.000316 µM) was 125%, the viability, T/C (second compound 0.0316 µM, first compound 0.001 µM) was 123% and the viability, T/C [1] was 116%. The viability, T/C [2] was 126%, the viability, T/C [3] was 53.5% and the viability, T/C [4] was 14.7%. It also gave a viability, T/C (second compound 0.1 µM, first compound 0.000316 µM) of 108%, a viability, T/C (second compound 0.1 µM, first compound 0.001 µM) of 111% and a viability, T/C [5] of 104%. For the same molecule, the viability, T/C [6] was 113%, the viability, T/C [7] was 47.8% and the viability, T/C [8] was 11.8%. For the same molecule, the viability, T/C (second compound 0.316 µM, first compound 0.000316 µM) was 116%, the viability, T/C (second compound 0.316 µM, first compound 0.001 µM) was 110% and the viability, T/C [9] was 122%. For the same molecule, the viability, T/C [10] was 101%, the viability, T/C [11] was 48.2% and the viability, T/C [12] was 11.7%. It also gave a viability, T/C (second compound 1 µM, first compound 0.000316 µM) of 116%, a viability, T/C (second compound 1 µM, first compound 0.001 µM) of 124% and a viability, T/C [13] of 112%. For the same molecule, the viability, T/C [14] was 91.7%, the viability, T/C [15] was 44.7% and the viability, T/C [16] was 10.6%. It also gave a viability, T/C (second compound 3.16 µM, first compound 0.000316 µM) of 112%, a viability, T/C (second compound 3.16 µM, first compound 0.001 µM) of 108% and a viability, T/C [17] of 109%. It also gave a viability, T/C [18] of 112%, a viability, T/C [19] of 28.4% and a viability, T/C [20] of 11.7%. It also gave a viability, T/C (second compound 10 µM, first compound 0.000316 µM) of 117%, a viability, T/C (second compound 10 µM, first compound 0.001 µM) of 107% and a viability, T/C [21] of 117%. The viability, T/C [22] was 98.9%, the viability, T/C [23] was 29.6% and the viability, T/C [24] was 16.2%.

For CCc1c2c(nc3ccc(O)cc13)-c1cc3c(c(=O)n1C2)COC(=O)[C@]3(O)CC + COC1C(OC(N)=O)C(O)C(Oc2ccc3c(O)c(NC(=O)c4ccc(O)c(CC=C(C)C)c4)c(=O)oc3c2C)OC1(C)C, the IC50 (second compound 0.0316 µM) was < 3.16 nM, the IC50 (second compound 0.1 µM) was < 3.16 nM and the IC50 (second compound 0.316 µM) was < 3.16 nM. For the same molecule, the IC50 (second compound 1 µM) was < 3.16 nM, the IC50 (second compound 3.16 µM) was < 3.16 nM and the IC50 (second compound 10 µM) was < 3.16 nM. The viability, T/C [1] was 40.8%, the viability, T/C [2] was 16.8% and the viability, T/C [3] was 7.82%. It also gave a viability, T/C [4] of 5.58%, a viability, T/C (second compound 0.0316 µM, first compound 0.316 µM) of 4.71% and a viability, T/C (second compound 0.0316 µM, first compound 1 µM) of 1.63%. It also gave a viability, T/C [5] of 40.5%, a viability, T/C [6] of 14.3% and a viability, T/C [7] of 8.6%. For the same molecule, the viability, T/C [8] was 6.16%, the viability, T/C (second compound 0.1 µM, first compound 0.316 µM) was 3.09% and the viability, T/C (second compound 0.1 µM, first compound 1 µM) was 1.68%. For the same molecule, the viability, T/C [9] was 42.7%, the viability, T/C [10] was 15.7% and the viability, T/C [11] was 9.73%. The viability, T/C [12] was 5.82%, the viability, T/C (second compound 0.316 µM, first compound 0.316 µM) was 4.86% and the viability, T/C (second compound 0.316 µM, first compound 1 µM) was 1.54%. The viability, T/C [13] was 33.4%, the viability, T/C [14] was 14.5% and the viability, T/C [15] was 9.49%. It also gave a viability, T/C [16] of 5.81%, a viability, T/C (second compound 1 µM, first compound 0.316 µM) of 3.09% and a viability, T/C (second compound 1 µM, first compound 1 µM) of 2.46%. It also gave a viability, T/C [17] of 26.4%, a viability, T/C [18] of 11.5% and a viability, T/C [19] of 8.08%. It also gave a viability, T/C [20] of 4.59%, a viability, T/C (second compound 3.16 µM, first compound 0.316 µM) of 2.7% and a viability, T/C (second compound 3.16 µM, first compound 1 µM) of 1.71%. For the same molecule, the viability, T/C [21] was 14.7%, the viability, T/C [22] was 11.2% and the viability, T/C [23] was 7.82%. The viability, T/C [24] was 6.39%, the viability, T/C (second compound 10 µM, first compound 0.316 µM) was 3.19% and the viability, T/C (second compound 10 µM, first compound 1 µM) was 1.43%.
